Non-standard residues stand in square brackets, D forms with d. Residues, ends and D or L forms follow the SMILES beside them. ξ: configuration not given here. *: point of attachment. Boc = CC(C)(C)OC(=O)*; ξA = CC(N)C(=O)O
| SMILES | melting point |
| --- | --- |
| O=[N+]([O-])c1ccc(OCCCCCOc2ccc([N+](=O)[O-])cc2)cc1 | 101 to 102 °C |
| O=C(Nc1cc(-c2cccc(-c3ccccc3)c2)[nH]n1)C1Cc2ccccc2C1 | 108 to 110 °C |
| COC(=O)CNC(=O)C(C)NC(=O)CNC(=O)CNC(=O)OC(C)(C)C (configuration not stated) (Boc-GG[ξA]G-OMe) | 103 to 105 °C |
| N=C1SCCN1c1ccccc1[N+](=O)[O-] | 127 °C |
| CC(C)(C)OC(=O)N1CCC(Oc2ccccc2C(C)(C)C)CC1 | 102 to 103 °C |
| CCCCCC(=O)COS(=O)(=O)c1ccc(OCC)cc1 | 35 to 35.5 °C |
| CC(=O)Nc1ccc(C(=O)c2cc(-c3ccc(S(C)(=O)=O)cc3)c(N3CCOCC3)s2)cc1 | 129 °C |
| CN(C)CCCOc1ccc(N2N=C3c4cc(F)ccc4CCC3CC2=O)cc1 (configuration not stated) | 118 to 120 °C |
| CCCc1nc2c(N)nc3cc(OC)ccc3c2s1 | 152 to 154 °C |
| O=S(=O)(c1ccccc1)n1c(Sc2cc(Cl)cc(Cl)c2)cc2cc(Cl)ccc21 | 121 to 122 °C |
| CN(Cc1cc2c(-c3ccccc3)c(CC(=O)Nc3ccc(Cl)cc3C(F)(F)F)c(=O)oc2cc1Cl)C(=O)c1ccccc1 | 215 to 216 °C |
| Cc1oc(-c2ccc(S(C)(=O)=O)cc2)c(Oc2ccc(Cl)cc2)c(=O)c1Br | 251 °C |
| CN1CCN(Cc2cc3c(cc2F)-c2[nH]nc(-c4ccsc4)c2C3)CC1 | 115 to 118 °C |
| COc1c(C=O)cccc1Oc1ccccc1C | 53 to 55 °C |
| COc1cc(Nc2c(C#N)cnc3cc(-n4cccc4)c(OC)cc23)c(Cl)cc1Cl | 229 to 230 °C |
| CCOc1cc2c(cc1OCC)C(=C(C#N)SCC(CN1CCOCC1)OC(C)=O)NCC2 (configuration not stated) | 133 °C |
| NS(=O)(=O)c1cccc(-c2cn(-c3cc(C(F)(F)F)cc(-c4ccc(C(F)(F)F)cc4)n3)cn2)c1 | > 266 °C |
| Cc1cccc(C)c1NCC(N)=O | 89 to 92 °C |
| O=[N+]([O-])c1ccc(Cl)nc1N1CCNCC1 | 50 to 53 °C |
| COC(=O)COc1ccc(-c2coc3cc(OCC(=O)OC)ccc3c2=O)cc1 | 163 to 166 °C |
| Cn1ncc2[nH]c3ccc(Cc4cccc(O)c4)cc3c(=O)c21 | > 270 °C |
| CCCCCCCN(CCC(C)(C)CCSc1nc(-c2ccccc2)c(-c2ccccc2)[nH]1)C(=O)Nc1ccc(F)cc1F | 138 to 139 °C |
| COc1ccc2[nH]c(C(F)(F)F)c(C#N)c2c1 | 189 to 190 °C |
| CC=Cc1cc(OC)c(OC)cc1Cc1cnc(N)nc1N | 204 to 208 °C |

| SMILES | melting point |
| --- | --- |
| COC(=O)C1=Cc2cc(-c3ccc(C)cc3)ccc2S(=O)(=O)CC1 | 203 to 204 °C |
| CCOC(=O)C1=C(C(Br)Br)Nc2ncnn2C1C (configuration not stated) | 170 to 171 °C |
| Cn1nc2c([N+](=O)[O-])cc3nc(O)c(O)nc3c2n1 | > 300 °C |
| Cc1ccc(CSC[C@H](NC(=O)C(CS)Cc2ccc(-c3ccccc3)cc2)C(=O)O)cc1 (some centres not stated) | 131 to 135 °C |
| Cc1ccc(C)n1-c1nc(S(=O)(=O)Nc2cccc(Cl)c2Cl)n[nH]1 | 185 °C |
| CCN(CC)C(=O)c1c(-c2ccccc2)ccc2cc(-c3ccc(OC)cc3)ccc12 | 147 to 148 °C |
| Cc1cc(Nc2cncc(Nc3cccc(C#N)c3)n2)n[nH]1 | 260 to 262 °C |
| COC12CC(CCCO)CN(C)C1Cc1c[nH]c3cccc2c13 (configuration not stated) | 190 to 195 °C |
| CC(O)c1c(-c2ccc(F)cc2)cc2c3c1ccn3C(=O)CNC2 (configuration not stated) | 220 to 222 °C |
| NC(=O)C1(CC23CC4CC(CC(C4)C2)C3)C=C(O)C=CC1Cl (configuration not stated) | 263 to 264 °C |
| CCCc1nn(C)c2c(=O)[nH]c(-c3cc(-c4nccn4C)ccc3OCC)nc12 | 199 to 202 °C |
| Cc1ccc(S(=O)(=O)N2CCC3(CCc4ccccc43)CC2)cc1 | 140 to 142 °C |
| COc1ccccc1Oc1c(Cl)nc(N)nc1Cl | 190 °C |
| CCc1cccc(C)c1CNc1cc(C(N)=O)nc2c1nc(C)n2C | 237 to 239 °C |
| CCC(CC)CC(NC(=O)COC)C1(c2ccc(Cl)c(Cl)c2)CCC1 (configuration not stated) | 72 to 74 °C |
| CC(=O)NC(CO)C(=O)c1ccccc1 (configuration not stated) | 115 to 117 °C |
| Cc1cc(-c2cccc(S(F)(F)(F)(F)F)c2)c(S(C)(=O)=O)cc1C(=O)NC(=N)N | 169 to 175 °C |
| CC(=O)COc1ccn2nc(-c3ccccc3)c(-c3ccc(=O)n(C(C)C)n3)c2c1 | 172 to 174 °C |
| CCCCN1C(=O)CSC(=NOC(=O)NC)C1C (configuration not stated) | 118 to 120 °C |
| CCCC(=O)c1nc(CCC)[nH]c1C | 94 to 95 °C |
| CCC(=O)C1c2cccc(O)c2C(=O)c2c(OC(C)=O)cccc21 (configuration not stated) | 106 °C |
| Nc1ccc(C(=O)N2Cc3ccnn3Cc3ccccc32)c(Cl)c1 | 98 to 117 °C |
| CN1Cc2cncn2-c2ccc(F)cc2C1=O | 236 °C |

Results, then the compound that gave them:

| melting point | SMILES |
| --- | --- |
| 162 to 166 °C | Cc1ccc(NC(=O)c2cccc(N3CCOCC3)c2)cc1NC(=O)c1cccc(OC2CCNCC2)c1 |
| 77 to 78 °C | FC(F)(F)c1ccc(Oc2ccc3nonc3c2)cc1 |
| 205 to 208 °C | COc1ccc(CCc2oc3ccc(C#N)cc3c2C(=O)O)cc1 |
| 53 to 54 °C | COc1ccc(CCCl)cc1O |
| 94 to 95 °C | CC1(c2nc(NC3CC3)nc(N3CCOCC3)n2)CC1 |
| 151 to 152 °C | COc1cc2c(cc1OS(N)(=O)=O)CCN(Cc1cccc(NS(C)(=O)=O)c1)C2 |
| 204 to 206 °C | COc1c(O)ccc2cc(-c3ccc(O)cc3)ccc12 |
| 115 to 117 °C | COC(=O)c1cc([N+](=O)[O-])c(C(C)(C)C)c([N+](=O)[O-])c1 |
| 262 to 264 °C | COc1ccc2[nH]c(-c3cccc(C)c3)cc(=O)c2c1 |
| 202 to 204 °C | COc1cccc(/C=C/C2=CCN(Cc3nc4ccccc4[nH]3)CC2)c1 |
| 121 to 124 °C | Cc1nc[nH]c1CSCCNC1=Nc2ccccc2C(=O)C1 |
| 212 °C | CCOC(=O)C1=C(C)NC2(C)ON=C(C)C2C1c1ccccc1[N+](=O)[O-] (configuration not stated) |
| 67.5 to 69 °C | CCOC(=O)C(=O)CC(=O)/C=C/c1ccc(Cl)c(OC)c1F |
| 168 to 169 °C | O=C(Cc1cn(-c2ccccc2)nc1-c1ccc(Cl)cc1)NO |
| 138 to 142 °C | COC(=O)c1cccc(Oc2ccc(NC(=O)c3ccc([N+](=O)[O-])cc3Br)cc2NC(=O)c2ccc([N+](=O)[O-])cc2Br)c1C(=O)OC |
| 104 to 106 °C | COc1cccc(C(O)c2nc3c(cc2C)CCCCC3)c1 (configuration not stated) |
| 74 to 77 °C | CCOC1CCC2C3CCc4cc(OC)ccc4C3CCC12CC (configuration not stated) |
| 59 to 59.9 °C | COc1cc(Br)c(C(C)=O)cc1OC(C)C |
| 44 °C | CCc1nc(-c2ccccc2Cl)nn1C |
| 173 to 174 °C | Cc1nc(-n2cc(Cl)ccc2=O)sc1C(=O)NCc1ccccc1 |
| 61 to 62 °C | CC(=O)Oc1cc(OC(C)=O)cc(C(=O)CBr)c1 |
| 174 to 176 °C | O=S(c1ccccc1)C1COc2ccc(OCc3ccc4ccccc4n3)cc2C1O (configuration not stated) |
| > 300 °C | O=C(Nc1cccc(C(F)(F)F)c1)Nc1nccnc1C(=O)O |
| 91.1 °C | CC#CCOc1ccc(SC(C(=O)NO)c2ccc(F)cc2)cc1 (configuration not stated) |
| 138 °C | CCCCN1CCC(O)(c2cccc(C(F)(F)F)c2F)CC1 |

From a melting point compilation (Tetko et al.; mined from patent text by program, amines drawn as free bases though some values may be those of a salt)
